From US20250326744A1, “PIPERAZINE DERIVATIVE OR SALT THEREOF, AND PHARMACEUTICAL COMPOSITION” (priority 2022, published 2025)
Where a name gives a salt, the structure may show the parent alone.

Columns and labels:
mexB (PA) strain = experiment: Combinational effect with antibacterial agent against Pseudomonas aeruginosa (Test Examples 2 and 4): mexB (PA) strain with LVFX, TC or AZT at 1/4 MIC, EC99; format: cell-based; settings: mexB (PA) strain, Test Example 4; for EC99, combinational effect with AZT, mexB (PA): combined with AZT at 1/4 MIC; for EC99, combinational effect with LVFX, mexB (PA): combined with LVFX at 1/4 MIC; for EC99, combinational effect with TC, mexB (PA): combined with TC at 1/4 MIC
How it was run: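 P. aeruginosa mexB (PA) strain, lacking MexCD-OprJ, MexEF-OprN and MexXY and overexpressing MexAB-OprM, grown 16–20 h in CAMHB (10^4–5 CFU/well) with LVFX, TC or AZT at ¼ MIC plus test compound at 0–800 μM. Growth read as OD595; EC99 is the lowest compound concentration giving ≥99% growth inhibition.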

S-3769 strain = experiment: Combinational effect with antibacterial agent against Pseudomonas aeruginosa (Test Examples 2 and 4): S-3769 strain with AMK or GM at 1/4 MIC, EC99; format: cell-based; settings: S-3769 strain, Test Example 4; for EC99, combinational effect with AMK, S-3769 strain: combined with AMK at 1/4 MIC; for EC99, combinational effect with GM, S-3769 strain: combined with GM at 1/4 MIC
How it was run: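 P. aeruginosa S-3769 (clinical isolate, MexY overexpressed) grown 16–20 h in CAMHB, 10^4 to 5 CFU/well, with AMK or GM at ¼ MIC plus test compound 0–800 μM. Growth read as OD595; EC99 is the lowest compound concentration giving ≥99% growth inhibition.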

SMILES | EC99, combinational effect with AZT, mexB (PA) (mexB (PA) strain) | EC99, combinational effect with LVFX, mexB (PA) (mexB (PA) strain) | EC99, combinational effect with TC, mexB (PA) (mexB (PA) strain) | EC99, combinational effect with AMK, S-3769 strain (S-3769 strain) | EC99, combinational effect with GM, S-3769 strain (S-3769 strain)
CSc1ccccc1CN1CCN(C(=O)[C@H](N)C2CCN(CCc3cc(Cl)ccc3-c3cc(O)cc(Cl)c3)CC2)CC1 [Example 610, (R)-2-amino-2-(1-(2-(3′-4-dichloro-5′-hydroxy-[1,1′-biphenyl]-2-yl)ethyl)piperidin-4-yl)-1-(4-(2-(methylthio)benzyl)piperazin-1-yl)ethan-1-one] | S (EC99≤12.5 μM) | S (EC99≤12.5 μM) | S (EC99≤12.5 μM) | S (EC99≤12.5 μM) | S (EC99≤12.5 μM)
CSc1ccccc1CN1CCN(C(=O)[C@H](N)C2CCN(CCc3cc(Cl)ccc3-c3cccc(O)c3)CC2)CC1 [Example 611, Hydrochloride of (R)-2-amino-2-(1-(2-(4-chloro-3′-hydroxy-[1,1-biphenyl]-2-yl)ethyl)piperidin-4-yl)-1-(4-(2-(methylthio)benzyl)piperazin-1-yl)ethan-1-one] | S (EC99≤12.5 μM) | S (EC99≤12.5 μM) | S (EC99≤12.5 μM) | S (EC99≤12.5 μM) | B (25 μM<EC99≤100 μM)
CSc1ccccc1CN1CCN(C(=O)[C@H](N)C2CCN(CCc3cc(Cl)ccc3-c3cc(O)ccc3F)CC2)CC1 [Example 612, (R)-2-amino-2-(1-(2-(4-chloro-2′-fluoro-5′-hydroxy-[1,1′-biphenyl]-2-yl)ethyl)piperidin-4-yl)-1-(4-(2-(methylthio)benzyl)piperazin-1-yl)ethan-1-one] | S (EC99≤12.5 μM) | S (EC99≤12.5 μM) | S (EC99≤12.5 μM) | S (EC99≤12.5 μM) | S (EC99≤12.5 μM)
CCSc1cc(F)ccc1CN1CCN(C(=O)[C@H](N)C2CCN(CCc3cc(Cl)ccc3-c3cc(O)cc(Cl)c3)CC2)CC1 [Example 614, (R)-2-amino-2-(1-(2-(3′,4-dichloro-5′-hydroxy-[1,1′-biphenyl]-2-yl)ethyl)piperidin-4-yl)-1-(4-(2-(ethylthio)-4-fluorobenzyl)piperazin-1-yl)ethan-1-one] | S (EC99≤12.5 μM) | S (EC99≤12.5 μM) | S (EC99≤12.5 μM) | S (EC99≤12.5 μM) | S (EC99≤12.5 μM)
CCSc1cc(F)ccc1CN1CCN(C(=O)[C@H](N)C2CCN(CCc3cc(Cl)ccc3-c3cc(O)ccc3F)CC2)CC1 [Example 615, (R)-2-amino-2-(1-(2-(4-chloro-2′-fluoro-5′-hydroxy-[1,1′-biphenyl]-2-yl)ethyl)piperidin-4-yl)-1-(4-(2-(ethylthio)-4-fluorobenzyl)piperazin-1-yl)ethan-1-one] | S (EC99≤12.5 μM) | S (EC99≤12.5 μM) | S (EC99≤12.5 μM) | S (EC99≤12.5 μM) | S (EC99≤12.5 μM)
CCSc1cc(F)ccc1CN1CCN(C(=O)[C@H](N)C2CCN(CCc3cc(Cl)ccc3-c3cccc(O)c3Cl)CC2)CC1 [Example 616, (R)-2-amino-2-(1-(2-(2′,4-dichloro-3′-hydroxy-[1,1′-biphenyl]-2-yl)ethyl)piperidin-4-yl)-1-(4-(2-(ethylthio)-4-fluorobenzyl)piperazin-1-yl)ethan-1-one] | S (EC99≤12.5 μM) | S (EC99≤12.5 μM) | S (EC99≤12.5 μM) | S (EC99≤12.5 μM) | S (EC99≤12.5 μM)
CSc1ccccc1CN1CCN(C(=O)[C@H](N)C2CCN(CCc3cc(Cl)ccc3-c3cc(O)cc(F)c3)CC2)CC1 [Example 617, (R)-2-amino-2-(1-(2-(4-chloro-3′-fluoro-5′-hydroxy-[1,1′-biphenyl]-2-yl)ethyl)piperidin-4-yl)-1-(4-(2-(methylthio)benzyl)piperazin-1-yl)ethan-1-one] | S (EC99≤12.5 μM) | S (EC99≤12.5 μM) | S (EC99≤12.5 μM) | S (EC99≤12.5 μM) | S (EC99≤12.5 μM)
CSc1ccccc1CN1CCN(C(=O)[C@H](N)C2CCN(CCc3cc(Cl)ccc3-c3cc(O)ccc3Cl)CC2)CC1 [Example 618, (R)-2-amino-2-(1-(2-(2′,4-dichloro-5′-hydroxy-[1,1′-biphenyl]-2-yl)ethyl)piperidin-4-yl)-1-(4-(2-(methylthio)benzyl)piperazin-1-yl)ethan-1-one] | S (EC99≤12.5 μM) | S (EC99≤12.5 μM) | S (EC99≤12.5 μM) | S (EC99≤12.5 μM) | S (EC99≤12.5 μM)
CCSc1cc(F)ccc1CN1CCN(C(=O)[C@H](N)C2CCN(CCc3cc(Cl)ccc3-c3cc(O)ccc3Cl)CC2)CC1 [Example 619, (R)-2-amino-2-(1-(2-(2′,4-dichloro-5′-hydroxy-[1,1′-biphenyl]-2-yl)ethyl)piperidin-4-yl)-1-(4-(2-(ethylthio)-4-fluorobenzyl)piperazin-1-yl)ethan-1-one] | S (EC99≤12.5 μM) | S (EC99≤12.5 μM) | S (EC99≤12.5 μM) | S (EC99≤12.5 μM) | S (EC99≤12.5 μM)
CCSc1ccc(O)cc1CN1CCN(C(=O)[C@H](N)C2CCN(CCc3cc(Cl)ccc3-c3cc(O)cc(F)c3)CC2)CC1 [Example 620, (R)-2-amino-2-(1-(2-(4-chloro-3′-fluoro-5′-hydroxy-[1,1′-biphenyl]-2-yl)ethyl)piperidin-4-yl)-1-(4-(2-(ethylthio)-5-hydroxybenzyl)piperazin-1-yl)ethan-1-one] | S (EC99≤12.5 μM) | S (EC99≤12.5 μM) | S (EC99≤12.5 μM) | S (EC99≤12.5 μM) | S (EC99≤12.5 μM)
CCSc1ccc(O)cc1CN1CCN(C(=O)[C@H](N)C2CCN(CCc3cc(Cl)ccc3-c3cc(O)ccc3F)CC2)CC1 [Example 621, (R)-2-amino-2-(1-(2-(4-chloro-2′-fluoro-5′-hydroxy-[1,1′-biphenyl]-2-yl)ethyl)piperidin-4-yl)-1-(4-(2-(ethylthio)-5-hydroxybenzyl)piperazin-1-yl)ethan-1-one] | S (EC99≤12.5 μM) | S (EC99≤12.5 μM) | S (EC99≤12.5 μM) | S (EC99≤12.5 μM) | S (EC99≤12.5 μM)
CCSc1ccc(O)cc1CN1CCN(C(=O)[C@H](N)C2CCN(CCc3cc(Cl)ccc3-c3cccc(O)c3Cl)CC2)CC1 [Example 622, Hydrochloride of (R)-2-amino-2-(1-(2-(2′,4-dichloro-3′-hydroxy-[1,1-biphenyl]-2-yl)ethyl)piperidin-4-yl)-1-(4-(2-(ethylthio)-5-hydroxybenzyl)piperazin-1-yl)ethan-1-one] | S (EC99≤12.5 μM) | S (EC99≤12.5 μM) | S (EC99≤12.5 μM) | S (EC99≤12.5 μM) | A (12.5 μM<EC99≤25 μM)
CCSc1cc(F)ccc1CN1CCN(C(=O)[C@H](N)C2CCN(CCc3ccc(O)cc3-c3ccccc3)CC2)CC1 [Example 624, Hydrochloride of (R)-2-amino-1-(4-(2-(ethylthio)-4-fluorobenzyl)piperazin-1-yl)-2-(1-(2-(5-hydroxy-[1,1-biphenyl]-2-yl)ethyl)piperidin-4-yl)ethan-1-one] | C (100 μM<EC99) | B (25 μM<EC99≤100 μM) | B (25 μM<EC99≤100 μM) | B (25 μM<EC99≤100 μM) | B (25 μM<EC99≤100 μM)
CCOc1cccc(F)c1CN1CCN(C(=O)[C@H](N)C2CCN(CCc3ccc(O)cc3-c3ccccc3)CC2)CC1 [Example 625, Hydrochloride of (R)-2-amino-1-(4-(2-ethoxy-6-fluorobenzyl)piperazin-1-yl)-2-(1-(2-(5-hydroxy-[1,1-biphenyl]-2-yl)ethyl)piperidin-4-yl)ethan-1-one] | C (100 μM<EC99) | C (100 μM<EC99) | C (100 μM<EC99) | A (12.5 μM<EC99≤25 μM) | A (12.5 μM<EC99≤25 μM)
